Data published in patent US9211310B2, “Use of a Chinese medicine composition in preparing medicaments for treating secondary prevention of myocardial infarction” (TASLY PHARMACEUTICAL GROUP CO., LTD, priority 2010, dated 2015).

System: patients after acute myocardial infarction
Assay: TCM symptom score, total and single (chest pain, chest tightness, short breath, fatigue, palpitation, spontaneous perspiration, pale complexion), same clinical trial
Format: in vivo, human
Set-up: total score of TCM symptom, Mean / total score of TCM symptom, Min / total score of TCM symptom, Max / total score of TCM symptom, Md / change of total score of TCM symptom, Mean / change of total score of TCM symptom, Max / change of total score of TCM symptom, Md: scale not given here
Details: PP
Source text: 3508 patients who were in accordance with the diagnostic standards of AMI for 28 days to 2 years and differentiated as Qi deficiency and blood stagnation syndrome by TCM were studied. 0.5 g Chinese medicine composition prepared by the method of EXAMPLE 1 (Coded as QSYQ) was administrated half an hour after meal, 3 times per day.
They included the overall survival time, angina pectoris score, TCM symptom score and life quality score, where angina pectoris score, TCM symptom score and life quality score were evaluated at randomization, in 1st, 3rd, 6th, 9th, 12th month after treatment and 18th month after follow-up.
The analysis method referred to the angina pectoris score.

[1] = 9 months after treatment-baseline
[2] = 12 months after treatment-baseline

Compound: CC(=O)Oc1ccccc1C(=O)O [Control group, aspirine]
- change of spontaneous perspiration −2, percent of patients [1]: (0.43%)
- change of spontaneous perspiration −3, number of patients [1]: 0
- change of spontaneous perspiration −3, percent of patients [1]: (0.00%)
- change of total score of TCM symptom, Max [1]: 15.00
- change of total score of TCM symptom, Md [1]: −4.00
- change of total score of TCM symptom, Mean [1]: −5.04
- change of short breath 0, number of patients (12 months after treatment): 743
- distribution of total score of TCM symptom: Medium, number of patients (12 months after treatment): 229
- distribution of total score of TCM symptom: Medium, percentage of patients (12 months after treatment): (16.33%)
- distribution of total score of TCM symptom: Mild, number of patients (12 months after treatment): 1172
- distribution of total score of TCM symptom: Mild, percentage of patients (12 months after treatment): (83.59%)
- distribution of total score of TCM symptom: Severe, number of patients (12 months after treatment): 1
- distribution of total score of TCM symptom: Severe, percentage of patients (12 months after treatment): (0.07%)
- fatigue score 0, % of patients (12 months after treatment): (39.06%)
- fatigue score 0, number of patients (12 months after treatment): 548
- fatigue score 2, % of patients (12 months after treatment): (58.16%)
- fatigue score 2, number of patients (12 months after treatment): 816
- fatigue score 4, % of patients (12 months after treatment): (2.64%)
- fatigue score 4, number of patients (12 months after treatment): 37
- fatigue score 6, % of patients (12 months after treatment): (0.14%)
- fatigue score 6, number of patients (12 months after treatment): 2
- pale complexion score 0, number of patients (12 months after treatment): 870
- pale complexion score 0, percent of patients (12 months after treatment): (62.01%)
- pale complexion score 1, number of patients (12 months after treatment): 463
- pale complexion score 1, percent of patients (12 months after treatment): (33.00%)
- pale complexion score 2, number of patients (12 months after treatment): 63
- pale complexion score 2, percent of patients (12 months after treatment): (4.49%)
- pale complexion score 3, number of patients (12 months after treatment): 7
- pale complexion score 3, percent of patients (12 months after treatment): (0.50%)
- palpitation score 0, number of patients (12 months after treatment): 576
- palpitation score 0, percent of patients (12 months after treatment): (41.05%)
- palpitation score 2, number of patients (12 months after treatment): 745
- palpitation score 2, percent of patients (12 months after treatment): (53.10%)
- palpitation score 4, number of patients (12 months after treatment): 78
- palpitation score 4, percent of patients (12 months after treatment): (5.56%)
- palpitation score 6, number of patients (12 months after treatment): 4
- palpitation score 6, percent of patients (12 months after treatment): (0.29%)
- short breath score 0, % of patients (12 months after treatment): (33.36%)
- short breath score 0, number of patients (12 months after treatment): 468
- short breath score 3, % of patients (12 months after treatment): (58.45%)
- short breath score 3, number of patients (12 months after treatment): 820
- short breath score 6, % of patients (12 months after treatment): (8.20%)
- short breath score 6, number of patients (12 months after treatment): 115
- short breath score 9, % of patients (12 months after treatment): (0.00%)
- short breath score 9, number of patients (12 months after treatment): 0
- spontaneous perspiration score 0, number of patients (12 months after treatment): 730
- spontaneous perspiration score 0, percent of patients (12 months after treatment): (52.03%)
- spontaneous perspiration score 1, number of patients (12 months after treatment): 640
- spontaneous perspiration score 1, percent of patients (12 months after treatment): (45.62%)
- spontaneous perspiration score 2, number of patients (12 months after treatment): 31
- spontaneous perspiration score 2, percent of patients (12 months after treatment): (2.21%)
- spontaneous perspiration score 3, number of patients (12 months after treatment): 2
- spontaneous perspiration score 3, percent of patients (12 months after treatment): (0.14%)
- total score of TCM symptom, Max (12 months after treatment): 28.00
- total score of TCM symptom, Md (12 months after treatment): 7.00
- total score of TCM symptom, Mean (12 months after treatment): 7.81
- total score of TCM symptom, Min (12 months after treatment): 0.00
- change of fatigue 0, % of patients [2]: (44.10%)
- change of fatigue 0, number of patients [2]: 617
- change of fatigue 2, % of patients [2]: (38.03%)
- change of fatigue 2, number of patients [2]: 532
- change of fatigue 4, % of patients [2]: (10.51%)
- change of fatigue 4, number of patients [2]: 147
- change of fatigue 6, % of patients [2]: (1.64%)
- change of fatigue 6, number of patients [2]: 23
- change of fatigue −2, % of patients [2]: (5.43%)
- change of fatigue −2, number of patients [2]: 76
- change of fatigue −4, % of patients [2]: (0.29%)
- change of fatigue −4, number of patients [2]: 4
- change of pale complexion 0, number of patients [2]: 967
- change of pale complexion 0, percent of patients [2]: (69.22%)
- change of pale complexion 1, number of patients [2]: 393
- change of pale complexion 1, percent of patients [2]: (28.13%)
- change of pale complexion −1, number of patients [2]: 37
- change of pale complexion −1, percent of patients [2]: (2.65%)
- change of palpitation 0, number of patients [2]: 679
- change of palpitation 0, percent of patients [2]: (48.53%)
- change of palpitation 1, number of patients [2]: 536
- change of palpitation 1, percent of patients [2]: (38.31%)
- change of palpitation 2, number of patients [2]: 97
- change of palpitation 2, percent of patients [2]: (6.93%)
- change of palpitation 3, number of patients [2]: 6
- change of palpitation 3, percent of patients [2]: (0.43%)
- change of palpitation −1, number of patients [2]: 78
- change of palpitation −1, percent of patients [2]: (5.58%)
- change of palpitation −2, number of patients [2]: 3
- change of palpitation −2, percent of patients [2]: (0.21%)
- change of spontaneous perspiration 0, number of patients [2]: 647
- change of spontaneous perspiration 0, percent of patients [2]: (46.28%)
- change of spontaneous perspiration 1, number of patients [2]: 483
- change of spontaneous perspiration 1, percent of patients [2]: (34.55%)
- change of spontaneous perspiration 2, number of patients [2]: 128
- change of spontaneous perspiration 2, percent of patients [2]: (9.16%)
- change of spontaneous perspiration 3, number of patients [2]: 29
- change of spontaneous perspiration 3, percent of patients [2]: (2.07%)
- change of spontaneous perspiration −1, number of patients [2]: 103
- change of spontaneous perspiration −1, percent of patients [2]: (7.37%)
- change of spontaneous perspiration −2, number of patients [2]: 8
- change of spontaneous perspiration −2, percent of patients [2]: (0.57%)
- change of total score of TCM symptom, Max [2]: 18.00
- change of total score of TCM symptom, Md [2]: −5.00
- change of total score of TCM symptom, Mean [2]: −6.09
- change of total score of TCM symptom, Min [2]: −28.00
- distribution of total score of TCM symptom: Medium, number of patients (Baseline): 717
- distribution of total score of TCM symptom: Medium, percentage of patients (Baseline): (48.78%)
- distribution of total score of TCM symptom: Mild, number of patients (Baseline): 701
- distribution of total score of TCM symptom: Mild, percentage of patients (Baseline): (47.69%)
- distribution of total score of TCM symptom: Severe, number of patients (Baseline): 52
- distribution of total score of TCM symptom: Severe, percentage of patients (Baseline): (3.54%)
- fatigue score 0, % of patients (Baseline): (18.22%)
- fatigue score 0, number of patients (Baseline): 268
- fatigue score 2, % of patients (Baseline): (60.50%)
- fatigue score 2, number of patients (Baseline): 890
- fatigue score 4, % of patients (Baseline): (17.74%)
- fatigue score 4, number of patients (Baseline): 261
- fatigue score 6, % of patients (Baseline): (3.54%)
- fatigue score 6, number of patients (Baseline): 52
- pale complexion score 0, number of patients (Baseline): 494
- pale complexion score 0, percent of patients (Baseline): (33.61%)
- pale complexion score 1, number of patients (Baseline): 626
- pale complexion score 1, percent of patients (Baseline): (42.59%)
- pale complexion score 2, number of patients (Baseline): 293
- pale complexion score 2, percent of patients (Baseline): (19.93%)
- pale complexion score 3, number of patients (Baseline): 57
